Assay type in all cases: cell-based
Assay [1] deals with T1, Her2 exon 20 YVMA insertion (A775_G776ins YVMA) (Homo sapiens, UniProt P04626, INS775YVMA).
T1 construct: expressed in transfected cells; host or cells: Ba/F3 (murine pro-B) cells transduced with lentivirus from pLVX-IRES puro
As to the kind of experiment: Ba/F3-Her2 Exon20 YVMA cell anti-proliferative assay (CellTiter 96 MTS, 72 h). The conditions noted are these: Ba/F3-Her2 Exon20 YVMA cells. The gist of the method: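 IL-3-independent Ba/F3 cells transduced with the YVMA insertion were treated with compound in 4-fold dilutions from 10,000 nM top. After 72 h at 37° C, viable cells were quantified by MTS tetrazolium conversion, with absorbance read at 490 nm after 2 h.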

Assay [2] concerns the target T2, human EGFR L858R and T790M double mutation (Homo sapiens, UniProt P00533, L858R/T790M).
T2 construct: expressed in transfected cells; host or cells: Ba/F3 (murine pro-B) cells transduced with lentivirus from pLVX-IRES puro
As to the kind of experiment: Ba/F3-EGFR L858R/T790M cell anti-proliferative assay (CellTiter 96 MTS, 72 h). The conditions noted are these: Ba/F3-EGFR L858R/T790M cells. The protocol:
An expression vector, pLVX-IRES puro (Clontech) coding for human EGFR L858R and T790M double mutation, was transfected into HEK293 cells by the Trans-Lentiviral ORF Packaging System (Thermo Scientific), to produce virus encoding EGFR L858R and T790M double mutations. Ba/F3 (DSMZ) cells maintained in RPMI 1640 medium supplemented with 10% fetal bovine serum, 200 μM L-glutamine/l 200 μg/mL penicillin/200 μg/mL streptomycin (Life Technology) and 10 ng/mL IL-3 (R&D system), were infected by EGFR L858R and T790M double mutation virus and subsequently selected by puromycin (Life Technology) selection and IL-3 depletion. […] The anti-proliferative activity of compounds was determined as follows: BaF3-EGFR L858R/T790M cells seeded in 96 well plates (2500 cells/well) were treated with test compound (dissolved in DMSO) at a series of concentrations (4-fold dilution, top concentration: 10,000 nM). The plates were incubated for 72 h in a 37° C. incubator with 5% CO2, and the number of viable cells in each well were measured indirectly by CellTiter 96® Aqueous One Solution Cell Proliferation Assay (Promega; this assay is a colorimetric method for determining the number of viable cells through measurement of their metabolic activity by detection of enzymatic conversion of tetrazolium salts into blue formazan derivatives). Reagent (20 μL) was added into each well, and the plates were returned to the incubator for 2 h. The absorbance in each well was then measured at 490 nm using an Envision plate reader (Perkin Elmer).

The target of assay [3] is T3, human EGFR E746-A750 deletion and T790M Mutation (Homo sapiens, UniProt P00533, DEL746-750/T790M).
T3 construct: expressed in transfected cells; host or cells: Ba/F3 (murine pro-B) cells transduced with lentivirus from pLVX-IRES puro
The assay can be described thus: Ba/F3-EGFR-Del/T790M cell anti-proliferative assay (CellTiter 96 MTS, 72 h). The conditions noted are these: Ba/F3-EGFR-Del/T790M cells. The gist of the method: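 Ba/F3 cells made IL-3-independent by lentiviral human EGFR E746-A750 del/T790M, puromycin-selected. Cells treated 72 h at 37 °C with compound, 4-fold dilutions from 10,000 nM top concentration. Viability read by MTS tetrazolium-to-formazan conversion, absorbance at 490 nm after 2 h with reagent.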

Assay [4] concerns the target T4, human EGFR exon 20 insertion ASV (V769_D770insASV) (Homo sapiens, UniProt P00533, INS769ASV).
T4 construct: expressed in transfected cells; host or cells: Ba/F3 (murine pro-B) cells transduced with lentivirus from pLVX-IRES puro
The assay can be described thus: Ba/F3-EGFR-Exon20-ASV cell anti-proliferative assay (CellTiter 96 MTS, 72 h). The conditions noted are these: Ba/F3-EGFR-Exon20-ASV cells. An outline of the steps:
(§1)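 Ba/F3 cells made IL-3-independent by lentiviral EGFR exon 20 NPG or ASV insertion were exposed 72 h at 37 °C to 4-fold dilutions of compound (top 10,000 nM). Viability read by MTS tetrazolium conversion, absorbance 490 nm after 2 h.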

The target of assay [5] is T5, human EGFR exon 20 insertion NPG (H773_V774insNPG) (Homo sapiens, UniProt P00533, INS772GNP).
T5 construct: expressed in transfected cells; host or cells: Ba/F3 (murine pro-B) cells transduced with lentivirus from pLVX-IRES puro
The assay can be described thus: Ba/F3-EGFR-Exon20-NPG cell anti-proliferative assay (CellTiter 96 MTS, 72 h). The conditions noted are these: Ba/F3-EGFR-Exon20-NPG cells. The gist of the method: as §1

T3 sequence (P00533 with tags, fused parts or gaps DEL746-750/T790M): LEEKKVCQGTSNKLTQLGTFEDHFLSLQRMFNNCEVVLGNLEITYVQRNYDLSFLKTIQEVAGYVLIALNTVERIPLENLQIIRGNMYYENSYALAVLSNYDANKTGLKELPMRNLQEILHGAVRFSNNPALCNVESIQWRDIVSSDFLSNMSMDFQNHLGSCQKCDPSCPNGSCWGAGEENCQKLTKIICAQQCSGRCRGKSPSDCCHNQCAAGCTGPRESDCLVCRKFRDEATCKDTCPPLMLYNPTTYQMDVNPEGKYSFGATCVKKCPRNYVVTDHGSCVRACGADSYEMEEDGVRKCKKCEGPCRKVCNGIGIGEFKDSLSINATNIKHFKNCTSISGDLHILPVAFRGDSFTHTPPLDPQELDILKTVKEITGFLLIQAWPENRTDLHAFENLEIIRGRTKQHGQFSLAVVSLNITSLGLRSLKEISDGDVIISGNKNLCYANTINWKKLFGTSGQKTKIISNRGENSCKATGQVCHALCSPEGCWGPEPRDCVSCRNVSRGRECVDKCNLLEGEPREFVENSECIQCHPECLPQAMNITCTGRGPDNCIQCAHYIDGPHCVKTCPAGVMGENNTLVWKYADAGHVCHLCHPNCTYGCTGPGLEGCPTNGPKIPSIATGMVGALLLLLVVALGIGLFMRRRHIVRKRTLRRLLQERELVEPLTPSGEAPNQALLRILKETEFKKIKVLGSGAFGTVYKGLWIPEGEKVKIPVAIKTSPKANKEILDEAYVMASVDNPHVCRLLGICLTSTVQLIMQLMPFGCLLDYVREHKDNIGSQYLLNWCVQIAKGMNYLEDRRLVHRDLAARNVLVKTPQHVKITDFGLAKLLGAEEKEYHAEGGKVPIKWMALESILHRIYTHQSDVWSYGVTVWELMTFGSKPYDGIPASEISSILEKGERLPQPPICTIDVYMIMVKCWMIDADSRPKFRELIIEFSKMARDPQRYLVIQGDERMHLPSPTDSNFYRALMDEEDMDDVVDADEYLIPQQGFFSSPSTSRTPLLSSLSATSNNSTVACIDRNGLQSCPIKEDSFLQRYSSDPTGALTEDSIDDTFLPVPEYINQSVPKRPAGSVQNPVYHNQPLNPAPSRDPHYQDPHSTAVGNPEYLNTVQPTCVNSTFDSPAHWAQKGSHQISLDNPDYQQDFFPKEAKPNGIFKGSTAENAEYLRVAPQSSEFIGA
T1 sequence (P04626 with tags, fused parts or gaps INS775YVMA): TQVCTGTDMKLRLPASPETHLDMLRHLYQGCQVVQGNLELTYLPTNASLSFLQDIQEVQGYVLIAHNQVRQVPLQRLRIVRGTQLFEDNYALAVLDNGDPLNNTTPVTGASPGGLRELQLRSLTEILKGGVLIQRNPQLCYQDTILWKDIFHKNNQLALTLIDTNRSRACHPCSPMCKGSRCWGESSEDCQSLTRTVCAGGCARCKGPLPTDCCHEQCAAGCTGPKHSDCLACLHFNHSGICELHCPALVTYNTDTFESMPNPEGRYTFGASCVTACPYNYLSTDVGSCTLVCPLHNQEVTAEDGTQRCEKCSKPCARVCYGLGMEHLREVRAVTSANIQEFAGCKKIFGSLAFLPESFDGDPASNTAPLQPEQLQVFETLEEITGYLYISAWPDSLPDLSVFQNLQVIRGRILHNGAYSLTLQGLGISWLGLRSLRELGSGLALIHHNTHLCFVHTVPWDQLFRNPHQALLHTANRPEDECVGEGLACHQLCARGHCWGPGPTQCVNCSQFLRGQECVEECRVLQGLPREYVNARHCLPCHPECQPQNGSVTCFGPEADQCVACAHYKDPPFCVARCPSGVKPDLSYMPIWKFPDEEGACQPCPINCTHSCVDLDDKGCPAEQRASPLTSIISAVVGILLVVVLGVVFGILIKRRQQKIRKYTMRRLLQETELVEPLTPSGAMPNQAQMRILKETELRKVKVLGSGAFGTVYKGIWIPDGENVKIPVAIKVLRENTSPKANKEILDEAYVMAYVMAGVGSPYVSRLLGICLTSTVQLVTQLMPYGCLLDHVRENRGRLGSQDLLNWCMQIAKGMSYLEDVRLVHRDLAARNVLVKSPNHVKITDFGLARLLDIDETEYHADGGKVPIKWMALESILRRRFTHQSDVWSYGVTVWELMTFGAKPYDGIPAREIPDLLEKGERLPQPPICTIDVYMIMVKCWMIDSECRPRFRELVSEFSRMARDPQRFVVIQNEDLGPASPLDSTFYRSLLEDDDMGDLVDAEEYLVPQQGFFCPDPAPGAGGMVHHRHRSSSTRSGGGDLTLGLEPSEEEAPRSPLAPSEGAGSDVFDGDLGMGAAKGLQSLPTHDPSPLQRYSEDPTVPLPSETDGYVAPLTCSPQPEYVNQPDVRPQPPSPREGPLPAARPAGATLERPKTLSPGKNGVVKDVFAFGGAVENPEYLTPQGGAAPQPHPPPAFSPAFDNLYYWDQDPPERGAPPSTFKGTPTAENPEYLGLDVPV
T5 sequence (P00533 with tags, fused parts or gaps INS772GNP): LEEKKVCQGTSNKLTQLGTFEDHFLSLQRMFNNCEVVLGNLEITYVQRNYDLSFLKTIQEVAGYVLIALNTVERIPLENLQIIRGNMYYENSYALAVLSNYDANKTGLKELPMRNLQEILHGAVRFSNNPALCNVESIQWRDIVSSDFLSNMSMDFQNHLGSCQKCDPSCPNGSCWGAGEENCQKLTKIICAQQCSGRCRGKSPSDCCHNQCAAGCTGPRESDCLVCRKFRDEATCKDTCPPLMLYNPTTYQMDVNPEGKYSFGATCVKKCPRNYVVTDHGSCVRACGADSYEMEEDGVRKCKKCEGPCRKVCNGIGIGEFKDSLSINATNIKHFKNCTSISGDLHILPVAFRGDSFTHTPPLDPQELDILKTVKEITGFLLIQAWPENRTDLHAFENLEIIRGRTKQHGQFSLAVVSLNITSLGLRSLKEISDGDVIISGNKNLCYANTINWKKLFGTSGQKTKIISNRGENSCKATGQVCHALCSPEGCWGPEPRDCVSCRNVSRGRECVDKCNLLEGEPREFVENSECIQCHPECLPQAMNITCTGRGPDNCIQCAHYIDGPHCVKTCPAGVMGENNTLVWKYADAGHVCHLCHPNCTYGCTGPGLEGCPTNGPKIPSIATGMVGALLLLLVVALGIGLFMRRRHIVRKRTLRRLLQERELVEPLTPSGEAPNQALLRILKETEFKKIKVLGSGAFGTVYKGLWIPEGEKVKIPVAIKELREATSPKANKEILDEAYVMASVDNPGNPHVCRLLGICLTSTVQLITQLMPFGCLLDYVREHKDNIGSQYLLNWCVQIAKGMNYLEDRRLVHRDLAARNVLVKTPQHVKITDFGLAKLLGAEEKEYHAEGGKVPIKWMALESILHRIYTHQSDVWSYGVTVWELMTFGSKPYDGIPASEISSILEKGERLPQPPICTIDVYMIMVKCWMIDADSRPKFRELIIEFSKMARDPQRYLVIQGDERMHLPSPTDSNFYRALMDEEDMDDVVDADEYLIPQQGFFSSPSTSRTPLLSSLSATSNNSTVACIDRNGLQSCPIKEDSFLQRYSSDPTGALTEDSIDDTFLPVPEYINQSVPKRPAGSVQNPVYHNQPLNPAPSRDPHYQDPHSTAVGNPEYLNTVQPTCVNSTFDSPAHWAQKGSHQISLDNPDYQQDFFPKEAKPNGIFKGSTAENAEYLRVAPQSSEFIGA
T2 sequence (P00533 25-1210 T790M/L858R): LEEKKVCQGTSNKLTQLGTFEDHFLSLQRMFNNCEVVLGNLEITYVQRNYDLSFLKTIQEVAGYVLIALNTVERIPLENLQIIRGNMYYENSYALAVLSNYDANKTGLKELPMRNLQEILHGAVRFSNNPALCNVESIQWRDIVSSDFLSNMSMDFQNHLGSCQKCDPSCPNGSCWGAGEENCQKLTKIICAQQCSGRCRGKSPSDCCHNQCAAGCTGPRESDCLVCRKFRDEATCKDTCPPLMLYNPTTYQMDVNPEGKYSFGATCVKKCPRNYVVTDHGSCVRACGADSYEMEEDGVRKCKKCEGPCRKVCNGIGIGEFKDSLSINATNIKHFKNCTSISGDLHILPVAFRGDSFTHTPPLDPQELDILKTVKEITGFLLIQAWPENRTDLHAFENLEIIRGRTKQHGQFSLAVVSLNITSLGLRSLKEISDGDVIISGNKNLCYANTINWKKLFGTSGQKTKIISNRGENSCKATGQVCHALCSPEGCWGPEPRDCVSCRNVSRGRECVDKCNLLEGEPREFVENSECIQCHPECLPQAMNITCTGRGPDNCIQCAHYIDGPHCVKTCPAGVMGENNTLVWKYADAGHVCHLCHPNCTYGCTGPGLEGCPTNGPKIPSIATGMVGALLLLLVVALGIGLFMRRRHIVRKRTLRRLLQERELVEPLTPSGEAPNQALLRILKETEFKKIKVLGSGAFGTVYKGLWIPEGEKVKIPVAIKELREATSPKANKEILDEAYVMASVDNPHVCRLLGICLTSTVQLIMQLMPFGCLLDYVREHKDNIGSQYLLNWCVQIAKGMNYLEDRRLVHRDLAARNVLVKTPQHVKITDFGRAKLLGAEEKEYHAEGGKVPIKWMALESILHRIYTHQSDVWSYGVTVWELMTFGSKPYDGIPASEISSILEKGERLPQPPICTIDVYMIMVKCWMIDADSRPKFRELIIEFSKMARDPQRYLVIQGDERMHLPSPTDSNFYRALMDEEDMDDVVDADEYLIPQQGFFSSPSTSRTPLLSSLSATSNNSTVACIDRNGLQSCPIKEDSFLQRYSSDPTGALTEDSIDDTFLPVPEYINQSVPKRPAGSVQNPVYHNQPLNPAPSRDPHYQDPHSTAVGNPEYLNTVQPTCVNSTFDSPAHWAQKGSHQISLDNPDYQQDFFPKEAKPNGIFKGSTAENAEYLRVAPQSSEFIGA

As to `C=CC(=O)Nc1cc(Nc2ncc(C#N)c(-c3cn4c5c(cccc35)OCC4)n2)c(OC)cc1N(C)CCN(C)C` [Example 4, N-(5-((5-cyano-4-(2,3-dihydro-[1,4]oxazino[2,3,4-hi]indol-6-yl)pyrimidin-2-yl)amino)-2-((2-(dimethylamino)ethyl)(methyl)amino)-4-methoxyphenyl)acrylamide], the IC50 in assay [1], in assay [4] and in assay [5] was less than 100 nM in each case. Moreover, the “EGFR exon 21 L858R and exon 20 T790M mutation IC50” value in assay [2] is reported as “A (IC50 value for the indicated mutant below about 100 nM)”. The “EGFR exon 19 deletion and exon 20 T790M mutation IC50” value in assay [3] was “A (IC50 value for the indicated mutant below about 100 nM)”.
As for `C=CC(=O)Nc1cc(Nc2ncc(C#N)c(-c3cn4c5c(cccc35)CCC4)n2)c(OC)cc1N(C)CCN(C)C(C)C` [Example 26, N-(5-((5-cyano-4-(5,6-dihydro-4H-pyrrolo[3,2,1-ij]quinolin-1-yl)pyrimidin-2-yl)amino)-2-((2-(isopropyl(methyl)amino)ethyl)(methyl)amino)-4-methoxyphenyl)acrylamide], the IC50 in assay [1], in assay [4] and in assay [5] was less than 100 nM each time. For the same compound, in assay [2], the “EGFR exon 21 L858R and exon 20 T790M mutation IC50” value is “A (IC50 value for the indicated mutant below about 100 nM)”. Besides, the “EGFR exon 19 deletion and exon 20 T790M mutation IC50” value in assay [3] is reported as “A (IC50 value for the indicated mutant below about 100 nM)”.
With `C=CC(=O)Nc1cc(Nc2ncc(C(N)=O)c(-c3cn4c5c(cccc35)CCC4)n2)c(OC)cc1N(C)CCN(C)C` [Example 46, 2-((5-acrylamido-4-((2-(dimethylamino)ethyl)(methyl)amino)-2-methoxyphenyl)amino)-4-(5,6-dihydro-4H-pyrrolo[3,2,1-ij]quinolin-1-yl)pyrimidin-5-carboxamide], the IC50 is 100 to 500 nM in assay [1], less than 100 nM in assay [4] and less than 100 nM in assay [5]. Also, in assay [2], the “EGFR exon 21 L858R and exon 20 T790M mutation IC50” value is “A (IC50 value for the indicated mutant below about 100 nM)”. Also, the “EGFR exon 19 deletion and exon 20 T790M mutation IC50” value in assay [3] was “A (IC50 value for the indicated mutant below about 100 nM)”.
Consider `C=CC(=O)Nc1cc(Nc2ncc(CCC(C)(C)O)c(-c3cn4c5c(cccc35)CCC4)n2)c(OC)cc1N(C)CCN(C)C` [Example 37, N-(5-((4-(5,6-dihydro-4H-pyrrolo[3,2,1-ij]quinolin-1-yl)-5-(3-hydroxy-3-methylbutyl)pyrimidin-2-yl)amino)-2-((2-(dimethylamino)ethyl)(methyl)amino)-4-methoxyphenyl)acrylamide], for which the IC50 is 100 to 500 nM in assay [1], less than 100 nM in assay [4] and less than 100 nM in assay [5]. The “EGFR exon 21 L858R and exon 20 T790M mutation IC50” value in assay [2] was “B (IC50 value for the indicated mutant between about 100 to about 500 nM)”. Also, the “EGFR exon 19 deletion and exon 20 T790M mutation IC50” value in assay [3] is “A (IC50 value for the indicated mutant below about 100 nM)”.
In the case of `C=CC(=O)Nc1cc(Nc2ncc(CCC(N)=O)c(-c3cn4c5c(cccc35)CCC4)n2)c(OC)cc1N(C)CCN(C)C` [Example 40, N-(5-((5-(3-amino-3-oxopropyl)-4-(5,6-dihydro-4H-pyrrolo[3,2,1-ij]quinolin-1-yl)pyrimidin-2-yl)amino)-2-((2-(dimethylamino)ethyl)(methyl)amino)-4-methoxyphenyl)acrylamide], the figures for the IC50 in assay [1], in assay [4] and in assay [5] were more than 1000 nM, 500 to 1000 nM and 100 to 500 nM, respectively. In assay [2], the “EGFR exon 21 L858R and exon 20 T790M mutation IC50” value is on record as “B (IC50 value for the indicated mutant between about 100 to about 500 nM)”. Also, in assay [3], the “EGFR exon 19 deletion and exon 20 T790M mutation IC50” value was “A (IC50 value for the indicated mutant below about 100 nM)”.
For `C=CC(=O)Nc1cc(Nc2nccc(-c3cn4c5c(cccc35)CCC4)n2)c(OC)cc1N(C)CCNC` [Example 83, N-(5-((4-(5,6-dihydro-4H-pyrrolo[3,2,1-ij]quinolin-1-yl)pyrimidin-2-yl)amino)-4-methoxy-2-(methyl(2-(methylamino)ethyl)amino)phenyl)acrylamide] the same measures were 100 to 500 nM, 100 to 500 nM, less than 100 nM, “A (IC50 value for the indicated mutant below about 100 nM)” and “A (IC50 value for the indicated mutant below about 100 nM)”.
For the compound `C=CC(=O)Nc1cc(Nc2ncc(C#N)c(-c3cn4c5c(cccc35)CCC4)n2)c(OC)cc1N(C)CCN(C)C` [Example 14, N-(5-((5-cyano-4-(5,6-dihydro-4H-pyrrolo[3,2,1-ij]quinolin-1-yl)pyrimidin-2-yl)amino)-2-((2-(dimethylamino)ethyl)(methyl)amino)-4-methoxyphenyl)acrylamide], the IC50 in assay [1] is less than 100 nM; in assay [4], less than 100 nM; in assay [5], more than 1000 nM. Also, the “EGFR exon 21 L858R and exon 20 T790M mutation IC50” value in assay [2] is on record as “A (IC50 value for the indicated mutant below about 100 nM)”. Also, the “EGFR exon 19 deletion and exon 20 T790M mutation IC50” value in assay [3] is reported as “A (IC50 value for the indicated mutant below about 100 nM)”.

Usually IC50 stands for the concentration that gives 50% inhibition. Lower therefore signals greater potency.

These data come from US20170166598A1, “HETEROARYL COMPOUNDS FOR KINASE INHIBITION” (ARIAD PHARMACEUTICALS, INC., priority 2014, published 2017).
